Measurements taken from BindingDB's records for doi:10.1016/j.bmcl.2009.09.018 (Sun Yat-Sen University, 2009).

Target: T1, Polyphenol oxidase 2 (Agaricus bisporus, UniProt O42713)
T1 sequence (O42713 whole entry): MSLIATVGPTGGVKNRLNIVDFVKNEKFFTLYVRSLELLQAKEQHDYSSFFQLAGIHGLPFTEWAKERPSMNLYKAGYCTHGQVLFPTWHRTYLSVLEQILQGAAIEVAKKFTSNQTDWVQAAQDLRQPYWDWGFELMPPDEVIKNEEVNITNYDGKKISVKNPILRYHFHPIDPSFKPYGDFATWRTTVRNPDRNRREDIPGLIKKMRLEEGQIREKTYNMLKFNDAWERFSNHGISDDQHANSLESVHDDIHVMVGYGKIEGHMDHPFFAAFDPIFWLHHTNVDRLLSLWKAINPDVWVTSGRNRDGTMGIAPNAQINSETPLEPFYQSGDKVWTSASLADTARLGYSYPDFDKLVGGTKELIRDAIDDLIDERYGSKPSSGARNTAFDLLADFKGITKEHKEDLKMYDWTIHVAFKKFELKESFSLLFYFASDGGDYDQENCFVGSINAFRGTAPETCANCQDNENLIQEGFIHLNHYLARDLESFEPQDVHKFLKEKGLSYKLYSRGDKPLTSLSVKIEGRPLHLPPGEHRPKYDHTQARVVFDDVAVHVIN
Assay: Inhibition of mushroom tyrosinase

Structure (SMILES)	IC50
CC(=O)OC[C@H]1O[C@@H](Oc2ccc(CN=O)cc2)[C@H](OC(C)=O)[C@@H](OC(C)=O)[C@@H]1OC(C)=O	> 200 µM
O=NCc1ccc(O[C@@H]2O[C@H](CO)[C@@H](O)[C@H](O)[C@H]2O)cc1	> 200 µM
O=NCc1ccc(O[C@@H]2O[C@H](CO)[C@@H](O)[C@@H](O)[C@H]2O)cc1 [4-((2S,3R,4R,5S,6R)-3,4,5-trihydroxy-6-(hydroxymethyl)tetrahydro-2H-pyran-2-yloxy)benzaldehyde oxime]	> 200 µM
CC(=O)OC[C@H]1O[C@@H](Oc2ccc(CN=O)cc2)[C@H](OC(C)=O)[C@H](OC(C)=O)[C@@H]1OC(C)=O [(2R,3R,4R,5R,6S)-2-(acetoxymethyl)-6-(4-((hydroxyimino)methyl)phenoxy)tetrahydro-2H-pyran-3,4,5-triyl triacetate]	> 200 µM
O=NCc1ccc(O[C@@H]2O[C@H](COC(=O)c3ccccc3)[C@@H](OC(=O)c3ccccc3)[C@@H](OC(=O)c3ccccc3)[C@H]2OC(=O)c2ccccc2)cc1 [(2R,3R,4R,5R,6S)-2-(benzoyloxymethyl)-6-(4-((hydroxyimino)methyl)phenoxy)tetrahydro-2H-pyran-3,4,5-triyl tribenzoate]	> 200 µM
CC(=O)OC[C@H]1O[C@@H](Oc2ccc(CN=O)cc2)[C@H](OC(C)=O)[C@@H](OC(C)=O)[C@H]1OC(C)=O [(2R,3S,4S,5R,6S)-2-(acetoxymethyl)-6-(4-((hydroxyimino)methyl)phenoxy)tetrahydro-2H-pyran-3,4,5-triyl triacetate]	> 200 µM
CC(=O)OC[C@H]1O[C@@H](O[C@H]2[C@H](OC(C)=O)[C@@H](OC(C)=O)[C@H](Oc3ccc(CN=O)cc3)O[C@@H]2COC(C)=O)[C@H](OC(C)=O)[C@@H](OC(C)=O)[C@H]1OC(C)=O [(2R,3S,4S,5R,6S)-2-(acetoxymethyl)-6-((2R,3R,4S,5R,6S)-4,5-diacetoxy-2-(acetoxymethyl)-6-(4-((hydroxyimino)methyl)phenoxy)tetrahydro-2H-pyran-3-yloxy)tetrahydro-2H-pyran-3,4,5-triyl triacetate]	> 200 µM
O=NCc1ccc(O[C@@H]2OC[C@@H](OC(=O)c3ccccc3)[C@H](OC(=O)c3ccccc3)[C@H]2OC(=O)c2ccccc2)cc1 [(2S,3R,4S,5R)-2-(4-((hydroxyimino)methyl)phenoxy)tetrahydro-2H-pyran-3,4,5-triyl tribenzoate]	> 200 µM
